The supplement of paper PMC10307832

Legend:
Assay in all cases: relative viability (nuclei count vs DMSO), 5 days (fraction); higher = more cells survive
IA-LM = test system: IA-LM
Procedure, shortened: (§1)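 After 5 days of treatment, lung cancer cells in 1536-well plates were fixed and stained in a single step (final 0.05% Triton X-100, 1% formaldehyde, 1 ug/ml Hoechst) and their nuclei counted on 4× images. Treatment had been applied by pin tool the day after seeding as one drug alone or as a fixed anchor-drug dose with five library-drug doses (not always all listed) in √10 steps. Relative viability is the nuclei count of treated wells divided by that of vehicle wells, and values are medians of duplicate plates.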

ABC-1 = test system: ABC-1
Procedure, shortened: as §1

NCI-H2126 = test system: NCI-H2126
Procedure, shortened: as §1

NCI-H1299 = test system: NCI-H1299
Procedure, shortened: as §1

NCI-H1703 = test system: NCI-H1703
Procedure, shortened: as §1

EKVX = test system: EKVX
Procedure, shortened: as §1

NCI-H2085 = test system: NCI-H2085
Procedure, shortened: as §1

EBC-1 = test system: EBC-1
Procedure, shortened: as §1

Calu-6 = test system: Calu-6
Procedure, shortened: as §1

NCI-H1993 = test system: NCI-H1993
Procedure, shortened: as §1

RERF-LC-KJ = test system: RERF-LC-KJ
Procedure, shortened: as §1

HCC-44 = test system: HCC-44
Procedure, shortened: as §1

A549 = test system: A549
Procedure, shortened: as §1

## Cc1sc2c(c1C)C(c1ccc(Cl)cc1)=N[C@@H](CC(=O)OC(C)(C)C)c1nnc(C)n1-2 [JQ1] + Cc1nc(NC(=O)N2CCC[C@H]2C(N)=O)sc1-c1ccnc(C(C)(C)C(F)(F)F)c1 [Alpelisib] (partner 2 µM)
IA-LM; first compound 0.04 µM
  relative viability: 0.772
IA-LM; first compound 0.1265 µM
  relative viability: 0.324
IA-LM; first compound 0.4 µM
  relative viability: 0.143
IA-LM; first compound 1.265 µM
  relative viability: 0.0875
IA-LM; first compound 4 µM
  relative viability: 0.103
ABC-1; first compound 0.04 µM
  relative viability: 1.07
ABC-1; first compound 0.1265 µM
  relative viability: 1.04
ABC-1; first compound 0.4 µM
  relative viability: 0.829
ABC-1; first compound 1.265 µM
  relative viability: 0.424
ABC-1; first compound 4 µM
  relative viability: 0.465
NCI-H2126; first compound 0.04 µM
  relative viability: 0.797
NCI-H2126; first compound 0.1265 µM
  relative viability: 0.682
NCI-H2126; first compound 0.4 µM
  relative viability: 0.681
NCI-H2126; first compound 1.265 µM
  relative viability: 0.516
NCI-H2126; first compound 4 µM
  relative viability: 0.47
NCI-H1299; first compound 0.04 µM
  relative viability: 1.02
NCI-H1299; first compound 0.1265 µM
  relative viability: 0.947
NCI-H1299; first compound 0.4 µM
  relative viability: 0.951
NCI-H1299; first compound 1.265 µM
  relative viability: 0.514
NCI-H1299; first compound 4 µM
  relative viability: 0.353
NCI-H1703; first compound 0.04 µM
  relative viability: 0.315
NCI-H1703; first compound 0.1265 µM
  relative viability: 0.335
NCI-H1703; first compound 0.4 µM
  relative viability: 0.297
NCI-H1703; first compound 1.265 µM
  relative viability: 0.26
NCI-H1703; first compound 4 µM
  relative viability: 0.321
EKVX; first compound 0.04 µM
  relative viability: 0.834
EKVX; first compound 0.1265 µM
  relative viability: 0.8
EKVX; first compound 0.4 µM
  relative viability: 0.688
EKVX; first compound 1.265 µM
  relative viability: 0.729
EKVX; first compound 4 µM
  relative viability: 0.664
NCI-H2085; first compound 0.04 µM
  relative viability: 0.975
NCI-H2085; first compound 0.1265 µM
  relative viability: 0.844
NCI-H2085; first compound 0.4 µM
  relative viability: 0.824
NCI-H2085; first compound 1.265 µM
  relative viability: 0.595
NCI-H2085; first compound 4 µM
  relative viability: 0.549
EBC-1; first compound 0.04 µM
  relative viability: 0.885
EBC-1; first compound 0.1265 µM
  relative viability: 0.454
EBC-1; first compound 0.4 µM
  relative viability: 0.226
EBC-1; first compound 1.265 µM
  relative viability: 0.142
EBC-1; first compound 4 µM
  relative viability: 0.149
Calu-6; first compound 0.04 µM
  relative viability: 0.955
Calu-6; first compound 0.1265 µM
  relative viability: 0.815
Calu-6; first compound 0.4 µM
  relative viability: 0.818
Calu-6; first compound 1.265 µM
  relative viability: 0.589
Calu-6; first compound 4 µM
  relative viability: 0.4
NCI-H1993; first compound 0.04 µM
  relative viability: 0.705
NCI-H1993; first compound 0.1265 µM
  relative viability: 0.653
NCI-H1993; first compound 0.4 µM
  relative viability: 0.667
NCI-H1993; first compound 1.265 µM
  relative viability: 0.665
NCI-H1993; first compound 4 µM
  relative viability: 0.665
RERF-LC-KJ; first compound 0.04 µM
  relative viability: 0.806
RERF-LC-KJ; first compound 0.1265 µM
  relative viability: 0.925
RERF-LC-KJ; first compound 0.4 µM
  relative viability: 0.793
RERF-LC-KJ; first compound 1.265 µM
  relative viability: 0.743
RERF-LC-KJ; first compound 4 µM
  relative viability: 0.427
HCC-44; first compound 0.04 µM
  relative viability: 0.809
HCC-44; first compound 0.1265 µM
  relative viability: 0.518
HCC-44; first compound 0.4 µM
  relative viability: 0.37
HCC-44; first compound 1.265 µM
  relative viability: 0.251
HCC-44; first compound 4 µM
  relative viability: 0.238
A549; first compound 0.04 µM
  relative viability: 0.785
A549; first compound 0.1265 µM
  relative viability: 0.644
A549; first compound 0.4 µM
  relative viability: 0.509
A549; first compound 1.265 µM
  relative viability: 0.401
A549; first compound 4 µM
  relative viability: 0.262
